# According to patent US7947287B2, “Peptides for the treatment of cancer associated with the human papilloma virus (HPV) and other epithelial tumors” (Centro de Ingenieria Genetica y Biotecnolgia, priority 2001, dated 2011):
# Bridges are numbered along the chain shown (N, C = ends). Where no end group is shown, it is not given here.
# Tested on: H-125 cells (Non-Small Lung Cell Cancer)
# Test: antitumor effect in human tumors implanted in nude mice
# Format: in vivo, BalbC nude mice
# Settings: H-125 subcutaneous, 1 to 10 mg/Kg every other day for one month, FIG. 6
# Protocol: For these experiments, 6-8 week old female BalbC nude mice were used. The tumor implantation was performed using H-125 cells (Non-Small Lung Cell Cancer) that were resuspended in saline solution (PBS) at 1000 000 cells/ml. Cell suspension was inoculated subcutaneously in the abdomen. Peptide administration (sequence 1 on the list) was made together with the cells and continued every other day until completing one month of treatment. In this assay, doses ranging between 1 and 10 mg/Kg of weight were evaluated. To examine the antitumor effect, parameters like tumor mass and survival of the animals were evaluated.
sequence,measurement,value
CSVRQGPVQKC (disulfide 1-11 (inferred)) [sequence 1 on the list],inhibition of tumor progression,effective in terms of the inhibition of tumor progression
